Starred links: 1 amine or outer side, 2 acyl side, 3 side chain; linkers in the order of their positions; H or OH if unused. Positions of bridges follow the written chain, without caps; N, C: chain ends. Non-standard residues stand in square brackets, D forms with d. Residues, ends and D or L forms follow the SMILES beside them. X1 = O=C(CC1(S[*:2])CCCCC1)[*:1]
Columns and labels:
[1] = system: vasopressor response to arginine vasopressin; experiment: Antivasopressor: antagonism to the vasopressor response (Dyckes et al.); assay type: in vivo; conditions: for Antivasopressor pA2: Table 1, estimated in vivo pA2; for Antivasopressor Potency ED / AD/VP: Table 2; for Antivasopressor Potency ED: effective dose; for AD/VP: ratio, values fit antivasopressor ED / anti-antidiuretic ED; for Antagonistic Activities Antivasopressor pA2: table
Method: Antagonism to the vasopressor response was estimated in accordance with Dyckes et al., J. Med. Chem., vol. 17 (1974) at 969. The values are expressed as pA2 values, defined as in Schild et al., Br. J. Pharmacol., vol. 2 (1947) at 189.
(§1) Antagonistic potencies were determined and expressed as "effective doses" and pA2 values. The "effective dose" is defined as the dose (in nanomoles per kilogram) that reduces the response seen from 2x units of agonist injected 20 min after the dose of antagonist to the response with 1x units of agonist. Estimated in vivo "pA2 " values represent the negative logarithms of the effective doses, divided by the estimated volume of distribution (67 ml/kg).

[2] = system: antidiuretic response to arginine vasopressin (ADH); experiment: Anti-antidiuretic: antagonism of the antidiuretic response to subsequent injections of vasopressin; assay type: in vivo, rats; conditions: for Anti-Antidiuretic pA2: estimated in vivo pA2, volume of distribution 67 ml/kg; for Anti-Antidiuretic ED: effective dose
Method: Activity as antidiuretic agonists was determined by intravenous injection of the compounds being evaluated in ethanol-anesthesized water-loaded rats in accordance with Sawyer, Endocrinology, vol. 63 (1958) at 694. Antagonism of the response to subsequent injections of vasopressin was tested as described by Sawyer et al., Science, vol. 212 (1981) at 49.
as §1

| Molecule | Antivasopressor pA2 [1] | Anti-Antidiuretic pA2 ([2]; Table 1) | Anti-Antidiuretic pA2 ([2]; Table 2) | also measured |
| --- | --- | --- | --- | --- |
| COc1ccc(C[C@H]2NC(=O)CC3(CCCCC3)SSC[C@@H](C(=O)N3CCC[C@H]3C(=O)N[C@@H](CCCNC(=N)N)C(=O)NCC(N)=O)NC(=O)[C@H](CC(N)=O)NC(=O)[C@H](CCC(N)=O)NC(=O)[C@H](Cc3ccccc3)NC2=O)cc1 [d(CH2)5 [D-Tyr(Me)^2]AVP, [1-(β-mercapto-β,β-cyclopentamethylenepropionic acid), 2-D-(O-methyl)tyrosine]-arginine vasopressin] ([dY](Me)FQNCPRG-NH2; linker N-5 via X1) | 8.27 ± 0.02 | 6.98 ± 0.08 | – | – |
| [1-(β-mercapto-β,β-cyclopentamethylenepropionic acid), 2-D-phenylalanine, 4-leucine, 7-hydroxyproline]-arginine vasopressin [d(CH2)5 D-Phe^2 Ile^4 Hy-Pro^7 AVP] | – | – | 7.74 | Antivasopressor Potency ED [1]: 0.9 ± 0.2 nmol/kg; AD/VP [1]: 0.7; Anti-Antidiuretic ED ([2]; Table 2): 1.3 ± 0.3 nmol/kg |
| CCOc1ccc(C[C@@H]2NC(=O)CC3(CCCCC3)SSC[C@@H](C(=O)N3CCC[C@H]3C(=O)N[C@@H](CCCNC(=N)N)C(=O)NCC(N)=O)NC(=O)[C@H](CC(N)=O)NC(=O)[C@H](CCC(N)=O)NC(=O)[C@H](Cc3ccccc3)NC2=O)cc1 [d(CH2)5 Tyr(Et)AVP, reference compound] (Y(Et)FQNCPRG-NH2; linker N-5 via X1) | – | – | – | Antagonistic Activities Antivasopressor pA2 [1]: 8.47 ± 0.04 |
| COc1ccc(C[C@@H]2NC(=O)CC3(CCCCC3)SSC[C@H](C(=O)N3CCC[C@H]3C(=O)N[C@@H](CCCNC(=N)N)C(=O)NCC(N)=O)NC(=O)[C@H](CC(N)=O)NC(=O)[C@H](CCC(N)=O)NC(=O)[C@H](Cc3ccccc3)NC2=O)cc1 [d(CH2)5 Tyr(Me)^2 D-Cys^6 AVP] (Y(Me)FQN[dC]PRG-NH2; linker N-5 via X1) | 7.87 ± 0.09 | 5.5 | – | – |
| CCOc1ccc(C[C@@H]2NC(=O)CC3(CCCCC3)SSC[C@@H](C(=O)N3CCC[C@H]3C(=O)N[C@H](CCCNC(=N)N)C(=O)NCC(N)=O)NC(=O)[C@H](CC(N)=O)NC(=O)[C@H](C(C)C)NC(=O)[C@H](Cc3ccccc3)NC2=O)cc1 [d(CH2)5 Tyr(Et)VDAVP] (Y(Et)FVNCP[dR]G-NH2; linker N-5 via X1) | 8.31 ± 0.05 | 7.10 ± 0.08 | – | – |
| COc1ccc(C[C@@H]2NC(=O)CC3(CCCCC3)SSC[C@@H](C(=O)N3CCC[C@H]3C(=O)N[C@@H](CCCNC(=N)N)C(=O)NCC(N)=O)NC(=O)[C@H](CC(N)=O)NC(=O)[C@H](CCC(N)=O)NC(=O)[C@H](Cc3ccccc3)NC2=O)cc1 [d(CH2)5 Tyr(Me)AVP, [1-(β-mercapto-β,β-cyclopentamethylenepropionic acid), 2-O-methyltyrosine]-arginine vasopressin, reference compound] (Y(Me)FQNCPRG-NH2; linker N-5 via X1) | 8.62 ± 0.03 | – | – | Antagonistic Activities Antivasopressor pA2 [1]: 8.62 ± 0.03 |
| N=C(N)NCCC[C@H](NC(=O)[C@@H]1CCCN1C(=O)[C@@H]1CSSC2(CCCCC2)CC(=O)N[C@H](Cc2ccccc2)C(=O)N[C@@H](Cc2ccccc2)C(=O)N[C@@H](Cc2ccccc2)C(=O)N[C@@H](CC(N)=O)C(=O)N1)C(=O)NCC(N)=O [d(CH2)5 D-Phe^2 Phe^4 AVP, [1-(β-mercapto-β,β-cyclopentamethylenepropionic acid), 2-D-phenylalanine, 4-phenylalanine]-arginine vasopressin] ([dF]FFNCPRG-NH2; linker N-5 via X1) | – | – | 6.07 | – |
| COc1ccc(C[C@@H]2NC(=O)CC3(CCCCC3)SSC[C@@H](C(=O)N3CCC[C@H]3C(=O)N[C@H](CCCNC(=N)N)C(=O)NCC(N)=O)NC(=O)[C@H](CC(N)=O)NC(=O)[C@H](C(C)C)NC(=O)[C@H](Cc3ccccc3)NC2=O)cc1 [d(CH2)5 Tyr(Me)VDAVP, [1-(β-mercapto-β,β-cyclopentamethylenepropionic acid), 2-O-methyltyrosine, 4-valine, 8-D-arginine]vasopressin] (Y(Me)FVNCP[dR]G-NH2; linker N-5 via X1) | 8.44 ± 0.07 | 6.68 ± 0.11 | – | – |
| CC[C@@H](C)[C@H]1NC(=O)CC2(CCCCC2)SSC[C@@H](C(=O)N2CCC[C@H]2C(=O)N[C@@H](CCCNC(=N)N)C(=O)NCC(N)=O)NC(=O)[C@H](CC(N)=O)NC(=O)[C@H]([C@@H](C)O)NC(=O)[C@H](Cc2ccccc2)NC1=O [d(CH2)5 D-Ile^2 Thr^4 AVP, [1-(β-mercapto-β,β-cyclopentamethylenepropionic acid), 2-D-isoleucine, 4-threonine]-arginine vasopressin] ([dI]FTNCPRG-NH2; linker N-5 via X1) | – | – | 7.91 | – |
| CC[C@@H](C)[C@H]1NC(=O)CC2(CCCCC2)SSC[C@@H](C(=O)N2CCC[C@H]2C(=O)N[C@@H](CCCNC(=N)N)C(=O)NCC(N)=O)NC(=O)[C@H](CC(N)=O)NC(=O)[C@H]([C@@H](C)CC)NC(=O)[C@H](Cc2ccccc2)NC1=O [d(CH2)5 D-Ile^2 Ile^4 AVP, [1-(β-mercapto-β,β-cyclopentamethylenepropionic acid), 2-D-isoleucine, 4-isoleucine]-arginine vasopressin] ([dI]FINCPRG-NH2; linker N-5 via X1) | – | – | 8.04 | – |
| COc1ccc(C[C@H]2NC(=O)CC3(CCCCC3)SSC[C@@H](C(=O)N3CCC[C@H]3C(=O)N[C@@H](CCCNC(=N)N)C(=O)NCC(N)=O)NC(=O)[C@H](CC(N)=O)NC(=O)[C@H](C(C)C)NC(=O)[C@H](Cc3ccccc3)NC2=O)cc1 [d(CH2)5 --D-Tyr(Me)VAVP] ([dY](Me)FVNCPRG-NH2; linker N-5 via X1) | 8.48 ± 0.08 | 7.77 ± 0.07 | – | – |
| CCOc1ccc(C[C@H]2NC(=O)CC3(CCCCC3)SSC[C@@H](C(=O)N3CCC[C@H]3C(=O)N[C@@H](CCCNC(=N)N)C(=O)NCC(N)=O)NC(=O)[C@H](CC(N)=O)NC(=O)[C@H](C(C)C)NC(=O)[C@H](Cc3ccccc3)NC2=O)cc1 [d(CH2)5 --D-Tyr(Et)VAVP] ([dY](Et)FVNCPRG-NH2; linker N-5 via X1) | 8.22 ± 0.12 | 7.81 ± 0.07 | – | – |
| CC[C@@H](C)[C@H]1NC(=O)CC2(CCCCC2)SSC[C@@H](C(=O)N2CCC[C@H]2C(=O)N[C@@H](CCCNC(=N)N)C(=O)NCC(N)=O)NC(=O)[C@H](CC(N)=O)NC(=O)[C@H](CCC(N)=O)NC(=O)[C@H](Cc2ccccc2)NC1=O [d(CH2)5 D-Ile^2 AVP, [1-(β-mercapto-β,β-cyclopentamethylenepropionic acid), 2-D-isoleucine]-arginine vasopressin] ([dI]FQNCPRG-NH2; linker N-5 via X1) | – | – | 6.96 | – |
| CC(C)[C@@H]1NC(=O)[C@H](Cc2ccccc2)NC(=O)[C@@H](Cc2ccccc2)NC(=O)CC2(CCCCC2)SSC[C@@H](C(=O)N2CCC[C@H]2C(=O)N[C@@H](CCCNC(=N)N)C(=O)NCC(N)=O)NC(=O)[C@H](CC(N)=O)NC1=O [d(CH2)5 D-Phe^2 VAVP] ([dF]FVNCPRG-NH2; linker N-5 via X1) | – | – | 8.06 | – |
| CCOc1ccc(C[C@@H]2NC(=O)CC3(CCCCC3)SSC[C@@H](C(=O)N3CCC[C@@H]3C(=O)N[C@@H](CCCNC(=N)N)C(=O)NCC(N)=O)NC(=O)[C@H](CC(N)=O)NC(=O)[C@H](C(C)C)NC(=O)[C@H](Cc3ccccc3)NC2=O)cc1 [d(CH2)5 Tyr(Et)^2 D-Pro^7 VAVP] (Y(Et)FVNC[dP]RG-NH2; linker N-5 via X1) | 8.23 ± 0.13 | 6.32 ± 0.11 | – | – |
| CC[C@H](C)[C@@H]1NC(=O)[C@H](Cc2ccccc2)NC(=O)[C@@H](Cc2ccccc2)NC(=O)CC2(CCCCC2)SSC[C@@H](C(=O)N2CCC[C@H]2C(=O)N[C@@H](CCCNC(=N)N)C(=O)NCC(N)=O)NC(=O)[C@H](CC(N)=O)NC1=O [d(CH2)5 D-Phe^2 Ile^4 AVP, [1-(β-mercapto-β,β-cyclopentamethylenepropionic acid), 2-D-phenylalanine, 4-isoleucine]-arginine vasopressin] ([dF]FINCPRG-NH2; linker N-5 via X1) | – | – | 8.24 | – |
| [1-(β-mercapto-β,β-cyclopentamethylenepropionic acid), 2-D-phenylalanine, 4-aminobutyric acid]-arginine vasopressin [d(CH 2)5 D-Phe^2 Abu^4 AVP] | – | – | 7.96 | Antivasopressor Potency ED [1]: 1.4 ± 0.3 nmol/kg; AD/VP [1]: 1.8; Anti-Antidiuretic ED ([2]; Table 2): 0.77 ± 0.12 nmol/kg |
| CCOc1ccc(C[C@H]2NC(=O)CC3(CCCCC3)SSC[C@@H](C(=O)N3CCC[C@@H]3C(=O)N[C@@H](CCCNC(=N)N)C(=O)NCC(N)=O)NC(=O)[C@H](CC(N)=O)NC(=O)[C@H](C(C)C)NC(=O)[C@H](Cc3ccccc3)NC2=O)cc1 [d(CH2)5 D-Tyr(Et)^2 D-Pro^7 VAVP] ([dY](Et)FVNC[dP]RG-NH2; linker N-5 via X1) | 8.10 ± 0.06 | 7.64 ± 0.08 | – | – |

Reference: patent US4551445A, “Derivatives of arginine vasopressin antagonists” (The Medical College of Ohio, priority 1983, dated 1985)
